# Results: US5264457A, “Phenyl amidines sulfonamides useful as platelet aggregation inhibitors” (G. D. Searle & Co., priority 1992, dated 1993)
# Tested on: platelet aggregation in dog PRP
# Experiment: In-vitro platelet aggregation in PRP (ADP-induced, dog platelet-rich plasma)
# Type: cell-based
# Settings: Canis lupus familiaris; for IC50: concentration inhibiting aggregation by 50%; for inhibition at 10 µM: test concentration of 10 μM
# Procedure: Compounds of the invention were evaluated by an […] assay to determine compound activity as an inhibitors of platelet aggregation.
# Healthy male or female dogs were fasted for 8 hours prior to drawing blood; then 30 mL whole blood was collected using a butterfly needle and 30 cc plastic syringe with 3 ml of 0.129M buffered sodium citrate (3.8%). The syringe was rotated carefully as blood was drawn to mix the citrate. Platelet-rich plasma (PRP) was prepared by centrifugation at 975×g for 3.17 minutes at room temperature, allowing the centrifuge to coast to a stop without braking. The PRP was removed from the blood with a plastic pipette and placed in a plastic capped, 50 ml Corning conical sterile centrifuge tube which was held at room temperature. Platelet poor plasma (PPP) was prepared by centrifuging the remaining blood at 2000×g for 15 minutes at room temperature allowing the centrifuge to coast to a stop without braking. The PRP was adjusted with PPP to a count of 2-3×10^8 s platelets per ml. 400 μL of the PRP preparation and 50 μL of the compound to be tested or saline were preincubated for 1 minute at 37° C. in a BioData aggregometer (BioData, Horsham, Pa.). 50 μL of adenosine 5'diphosphate (ADP) (50 μm final concentration) was added to the cuvettes and the aggregation was monitored for 1 minute. All compounds are tested in duplicate. Inhibition of aggregation for each sample was determined using the formula: % inhibition=(Tinh -Tbas)/(Tagg -Tbas ×100 where Tbas is % of light transmission in PRP (baseline), Tagg is % of light transmission in the aggregated PRP sample (saline control) and Tinh is % of light transmission in the sample containing the inhibitor.
Structure (SMILES),IC50,inhibition at 10 µM
"Cc1ccc(S(=O)(=O)NCC(CC(=O)O)NC(=O)CCCCc2ccc(C(=N)N)cc2)cc1 (racemic) [Example 1, (±)-3-[[5-[4-(Aminoiminomethyl)phenyl]-1-oxopentyl]amino]-4-[[(4-methylphenyl)sulfonyl]amino]butanoic acid]",1 µM,100%
"COc1ccc(S(=O)(=O)NCC(CC(=O)O)NC(=O)CCCCc2ccc(C(=N)N)cc2)cc1 (racemic) [Example 2, (±)-3-[[5-[4-(Aminoiminomethyl)phenyl]-1-oxopentyl]amino]-4-[[(4-methoxyphenyl)sulfonyl]amino]butanoic Acid]",8 µM,100%
"CCOC(=O)CC(CNS(=O)(=O)c1ccc(C)cc1)NC(=O)CCCCc1ccc(C(=N)N)cc1 (racemic) [Example 3, (±) Ethyl-3-[[5-[5-(Aminoiminomethyl)phenyl]-1-oxopentyl]amino]-4-[[(4-methylphenyl)sulfonyl]amino]butanoate]",,20%
